According to ChEMBL document CHEMBL3046692, “Antifeedant effect of commercial chemicals and plant extracts against Schistocerca americana (Orthoptera: Acrididae) and Diaprepes abbreviatus (Coleoptera: Curculionidae)” (2011):
Activity calls are given as the source filed them. The calls are words filed in the database; no cut-off is given here.

Assays:
Diaprepes abbreviatus [1] = experiment: Antifeedant activity against Diaprepes abbreviatus in compound treated healthy romaine lettuce plants assessed as area consumed from leaf disk at 5.6 ml/l by No-choice tests (1.40 +/- 0.1 cm'2); assay type: functional
Diaprepes abbreviatus [2] = experiment: Antifeedant activity against Diaprepes abbreviatus in compound treated healthy romaine lettuce plants assessed as area consumed from leaf disk at 5.6 ml/l by choice tests (1.45 +/- 0.1 cm'2); assay type: functional
Schistocerca americana [3] = experiment: Antifeedant activity against Schistocerca americana in compound treated healthy romaine lettuce plants assessed as area consumed from leaf disk at 5.6 ml/l by No-choice tests (3.10 +/- 0.1 cm'2); assay type: functional
Schistocerca americana [4] = experiment: Antifeedant activity against Schistocerca americana in compound treated healthy romaine lettuce plants assessed as area consumed from leaf disk at 5.6 ml/l by choice tests (2.62 +/- 0.1 cm'2); assay type: functional
Schistocerca americana [5] = experiment: Antifeedant activity against Schistocerca americana in compound treated Citrus paradisi MacFad (Rutaceae) potted plants assessed as area consumed from leaf disk measured under different 12 hr sunlight exposure at 18 g/l by No-choice tests; assay type: functional, organism-based
Schistocerca americana [6] = experiment: Antifeedant activity against Schistocerca americana in compound treated Citrus paradisi MacFad (Rutaceae) potted plants assessed as area consumed from leaf disk measured under different 8 hr sunlight exposure at 18 g/l by No-choice tests; assay type: functional, organism-based
Schistocerca americana [7] = experiment: Antifeedant activity against Schistocerca americana in compound treated Citrus paradisi MacFad (Rutaceae) potted plants assessed as area consumed from leaf disk measured under different 4 hr sunlight exposure at 18 g/l by No-choice tests; assay type: functional, organism-based
Schistocerca americana [8] = experiment: Antifeedant activity against Schistocerca americana in compound treated Citrus paradisi MacFad (Rutaceae) potted plants assessed as area consumed from leaf disk measured under 4 hr sunlight exposure at 18 g/l by No-choice tests; assay type: functional, organism-based
Schistocerca americana [9] = experiment: Antifeedant activity against Schistocerca americana in compound treated Citrus paradisi MacFad (Rutaceae) potted plants assessed as area consumed from leaf disk measured under 4 hr sunlight exposure at 5.6 ml/l by No-choice tests; assay type: functional, organism-based
Schistocerca americana [10] = experiment: Antifeedant activity against Schistocerca americana in compound treated Citrus paradisi MacFad (Rutaceae) potted plants assessed as area consumed from leaf disk measured under 8 hr sunlight exposure at 18 g/l by No-choice tests; assay type: functional, organism-based
Schistocerca americana [11] = experiment: Antifeedant activity against Schistocerca americana in compound treated Citrus paradisi MacFad (Rutaceae) potted plants assessed as area consumed from leaf disk measured under 8 hr sunlight exposure at 5.6 ml/l by No-choice tests; assay type: functional, organism-based
Schistocerca americana [12] = experiment: Antifeedant activity against Schistocerca americana in compound treated healthy romaine lettuce plants assessed as area consumed from leaf disk at 31.3 ml/l by choice tests (1.79 +/- 0.2 cm'2); assay type: functional
Diaprepes abbreviatus [13] = experiment: Antifeedant activity against Diaprepes abbreviatus in compound treated healthy romaine lettuce plants assessed as area consumed from leaf disk at 31.3 ml/l by choice tests (1.39 +/- 0.1 cm'2); assay type: functional
Diaprepes abbreviatus [14] = experiment: Antifeedant activity against Diaprepes abbreviatus in compound treated healthy romaine lettuce plants assessed as area consumed from leaf disk at 48 g/l by No-choice tests (2.51 +/- 0.2 cm'2); assay type: functional
Diaprepes abbreviatus [15] = experiment: Antifeedant activity against Diaprepes abbreviatus in compound treated healthy romaine lettuce plants assessed as area consumed from leaf disk at 48 g/l by choice tests (1.47 +/- 0.1 cm'2); assay type: functional
Schistocerca americana [16] = experiment: Antifeedant activity against Schistocerca americana in compound treated healthy romaine lettuce plants assessed as area consumed from leaf disk at 48 g/l by choice tests (1.88 +/- 0.2 cm'2); assay type: functional
Diaprepes abbreviatus [17] = experiment: Antifeedant activity against Diaprepes abbreviatus in compound treated Citrus paradisi MacFad (Rutaceae) potted plants assessed as reduction in leaf consumption measured under 12 hr sunlight exposure at 5.6 ml/l by No-choice tests; assay type: functional, organism-based
Diaprepes abbreviatus [18] = experiment: Antifeedant activity against Diaprepes abbreviatus in compound treated Citrus paradisi MacFad (Rutaceae) potted plants assessed as reduction in leaf consumption measured under 8 hr sunlight exposure at 5.6 ml/l by No-choice tests; assay type: functional, organism-based
Diaprepes abbreviatus [19] = experiment: Antifeedant activity against Diaprepes abbreviatus in compound treated Citrus paradisi MacFad (Rutaceae) potted plants assessed as reduction in leaf consumption measured under 4 hr sunlight exposure at 5.6 ml/l by No-choice tests; assay type: functional, organism-based
Diaprepes abbreviatus [20] = experiment: Antifeedant activity against Diaprepes abbreviatus in compound treated healthy romaine lettuce plants assessed as area consumed from leaf disk at 18 g/l by No-choice tests (2.48 +/- 0.1 cm'2); assay type: functional
Diaprepes abbreviatus [21] = experiment: Antifeedant activity against Diaprepes abbreviatus in compound treated healthy romaine lettuce plants assessed as area consumed from leaf disk at 18 g/l by choice tests (1.19 +/- 0.1 cm'2); assay type: functional
Schistocerca americana [22] = experiment: Antifeedant activity against Schistocerca americana in compound treated healthy romaine lettuce plants assessed as area consumed from leaf disk at 18 g/l by No-choice tests (3.14 +/- 0.1 cm'2); assay type: functional
Schistocerca americana [23] = experiment: Antifeedant activity against Schistocerca americana in compound treated healthy romaine lettuce plants assessed as area consumed from leaf disk at 18 g/l by choice tests (2.28 +/- 0.1 cm'2); assay type: functional
Diaprepes abbreviatus [24] = experiment: Antifeedant activity against Diaprepes abbreviatus in compound treated Citrus paradisi MacFad (Rutaceae) potted plants assessed as reduction in leaf consumption measured under 12 hr sunlight exposure at 18 g/l by No-choice tests; assay type: functional, organism-based
Diaprepes abbreviatus [25] = experiment: Antifeedant activity against Diaprepes abbreviatus in compound treated Citrus paradisi MacFad (Rutaceae) potted plants assessed as reduction in leaf consumption measured under 8 hr sunlight exposure at 18 g/l by No-choice tests; assay type: functional, organism-based
Diaprepes abbreviatus [26] = experiment: Antifeedant activity against Diaprepes abbreviatus in compound treated Citrus paradisi MacFad (Rutaceae) potted plants assessed as reduction in leaf consumption measured under 4 hr sunlight exposure at 18 g/l by No-choice tests; assay type: functional, organism-based

C/C=C(\C)C(=O)O[C@H]1C[C@@H](OC(C)=O)[C@@]2(C(=O)OC)CO[C@H]3[C@@H](O)[C@@](C)([C@]45O[C@@]4(C)[C@@H]4C[C@H]5O[C@@H]5OC=C[C@@]54O)[C@H]4[C@]1(CO[C@]4(O)C(=O)OC)[C@@H]32 [AZADIRACHTIN A]
Activity (Diaprepes abbreviatus [1]): 1.8 cm2 | Activity (Diaprepes abbreviatus [2]): 0.74 cm2 | Activity (Schistocerca americana [3]): 0.29 cm2 | Activity (Schistocerca americana [4]): 0.4 cm2 | Activity (Schistocerca americana [5]): inactive | Activity (Schistocerca americana [6]): inactive | Activity (Schistocerca americana [7]): inactive | Activity (Schistocerca americana [8]): inactive | Activity (Schistocerca americana [9]): inactive | Activity (Schistocerca americana [10]): Active | Activity (Schistocerca americana [11]): Active

COc1cc(CNC(=O)CCCC/C=C/C(C)C)ccc1O [CAPSAICIN]
Activity (Schistocerca americana [12]): 1.08 cm2 | Activity (Diaprepes abbreviatus [13]): 1.02 cm2

C=C(C)[C@H]1Cc2c(ccc3c2O[C@@H]2COc4cc(OC)c(OC)cc4[C@@H]2C3=O)O1 [ROTENONE]
Activity (Diaprepes abbreviatus [14]): 2.42 cm2 | Activity (Diaprepes abbreviatus [15]): 0.24 cm2 | Activity (Schistocerca americana [16]): 1.64 cm2 | Activity (Diaprepes abbreviatus [17]): inactive | Activity (Diaprepes abbreviatus [18]): inactive | Activity (Diaprepes abbreviatus [19]): inactive

CC(C)[C@@]1(O)[C@@H](OC(=O)c2cc[nH]c2)[C@@]2(O)[C@]3(C)C[C@@]4(O)O[C@@]5([C@H](O)[C@@H](C)CC[C@]35O)[C@@]2(O)[C@@]41C [RYANODINE]
Activity (Diaprepes abbreviatus [20]): 1.46 cm2 | Activity (Diaprepes abbreviatus [21]): 0.48 cm2 | Activity (Schistocerca americana [22]): 2.35 cm2 | Activity (Schistocerca americana [23]): 0.76 cm2 | Activity (Diaprepes abbreviatus [24]): inactive | Activity (Diaprepes abbreviatus [25]): inactive | Activity (Diaprepes abbreviatus [26]): inactive | Activity (Schistocerca americana [5]): inactive | Activity (Schistocerca americana [6]): inactive | Activity (Schistocerca americana [7]): inactive
